Assay results reported in US20120288442A1, “Nuclear Imaging Method Using Molecular Target Detection Agent for Liver Fibrosis” (ATOMIC ENERGY COUNCIL-INSTITUTE OF NUCLEAR ENERGY RESEARCH, priority 2011, published 2012).

Biological target: T1, CB1 receptor of liver fibrosis cell (Mus musculus, UniProt P47746)
T1 construct: from tissue; host or cells: liver of living mice (one fibrotic, one normal), in vivo imaging
Experiment: fluorescence imaging of a mouse having liver fibrosis and a normal mouse with Tocrifluor
Assay type: in vivo
Conditions: for a 543 nm light; FIG. 3B and FIG. 3C

T1 sequence (P47746 whole entry): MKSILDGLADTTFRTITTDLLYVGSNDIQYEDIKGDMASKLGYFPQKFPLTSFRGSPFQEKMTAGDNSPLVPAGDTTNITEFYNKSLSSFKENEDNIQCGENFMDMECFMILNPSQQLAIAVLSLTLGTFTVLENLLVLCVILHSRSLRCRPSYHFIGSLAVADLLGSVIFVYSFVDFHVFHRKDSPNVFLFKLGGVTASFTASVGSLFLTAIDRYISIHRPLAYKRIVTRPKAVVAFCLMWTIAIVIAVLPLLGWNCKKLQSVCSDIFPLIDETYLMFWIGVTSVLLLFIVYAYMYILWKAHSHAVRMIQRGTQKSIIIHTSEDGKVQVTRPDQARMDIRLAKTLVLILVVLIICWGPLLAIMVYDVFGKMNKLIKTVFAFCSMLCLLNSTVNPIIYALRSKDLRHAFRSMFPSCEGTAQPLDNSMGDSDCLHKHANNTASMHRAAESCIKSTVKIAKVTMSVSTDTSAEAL

**Q.** With “N-(Piperidin-1-yl)-5-(4-(4-(3-(5-carboxamidotetramethyl rhodaminyl)propyl))phenyl)-1-(2,4-dichlorophenyl)-4-methyl-1H-pyrazole-3-carboxamide [Tocrifluor]” as the substance, how does the “fluorescence found at wavelength” value read?
**A.** The value was 590 nm.
